Where a name gives a salt, the structure may show the parent alone.
Assays:
[1] = tafamidis-treated FAP patients, cited from earlier work
[2] = In vivo rat PK: tafamidis in plasma, CSF and brain; set-up: species or system Male Sprague-Dawley (SD) rats; conditions: for Tafamidis CSF/Plasma Ratio over 24 hrs (po): po administration of test compound; for Tafamidis CSF/Plasma Ratio (iv): iv administration of test compound
Excerpt: For a compound provided herein to be an effective TTR stabilizer drug to halt and/or prevent the ocular and cerebral TTR amyloid deposition TTR amyloidosis, it has to be able to penetrate into the brain and CSF (surrogate for eye penetration) and deliver a sufficient amount of TTR stabilizer to stop TTR dissociation. A pharmacokinetic study in rat was used to evaluate the compounds. Male Sprague-Dawley (SD) rats (200-220 g weight) were acclimated for at least 2 to 3 days before being placed on study. All animals had access to certified rodent diet and water at libitum. Appropriate amount of the test compound was accurately weighed and mixed with appropriate volume of vehicle (such as DMSO/sterile water for iv dosing or 0.5% methylcellulose homogenous suspension or solution for oral administration or as a solution in a mixture NMP/PEG400/solutol/water) to administer a dose of 2, 5 or 10 mg/kg. For IV dosing the test compound was administered via tail vein or indwelling cannula. For oral dosing, the test compound was administered by oral gavage. Blood and CSF samples were collected at selected timepoints. Blood collection was performed from saphenous vein or tail vein of each animal into polypropylene tubes at each timepoint. All blood samples were transferred into EDTA-K2 tubes and centrifuged for 15 minutes at 4° C. for plasma collection. Plasma samples were kept at -80° C. until LC/MSMS analysis. CSF was collected from cisterna magna at each timepoint and quick frozen over dry ice and kept at -80° C. until LC/MSMS analysis. Brains were harvested immediately after the terminal bleeding (~ 24 hrs post dosing). The blood of the brain was perfused with normal saline. The brain was quickly picked and placed into centrifuge tube. The weight of brain samples was recorded. 4-Fold homogenization solution (MeOH/15 mM PBS (1:2)) was added into the tube according to the weighed samples. The brain was homogenized using a Polytron (3 strokes or more until homogenous, each 30 seconds) on wet ice. The samples were quick frozen over dry ice and kept at -80° C. until LC/MSMS analysis. Using a LC-MSMS method for the quantitative determination of test compound in biological matrixes, amount of test compound and active agent were measured in plasma and CSF at selected timepoints post-dosing and in brain at 24 hrs post dosing. Plasma concentration versus time data was analyzed by non-compartmental approaches using the Phoenix WinNonlin 6.3 software program. As reference, an oral dose of 2 mg/kg of tafamidis gave a CSF to plasma ratio over 24 hrs around 0.01 and a brain to plasma ratio at 24 hrs around 0.02.

[3] = In vitro rat liver S9 stability assay, formation of tafamidis; type: in vitro ADME; conditions: rat liver S9, 37° C., 1 µM test compound
Method: The test compound was added to liver S9 and incubated at 37° C. in a water bath at a concentration of 1 µM. At each time point (0, 5, 10, 20, 30 and 60 min), stop solution (tolbutamide plus labetalol) was added to precipitate protein and mixed thoroughly. After centrifugation, an aliquot of supernatant was analyzed by LC-MS/MS. The percentage of formation of active agent was calculated at each time point.

[4] = In vitro rat plasma stability assay, formation of tafamidis; type: in vitro ADME; conditions: 37° C., 2 µM test compound
In short: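 Compound at 2 µM incubated in rat plasma at 37 °C, sampled at 0, 10, 30, 60, 120 min or 0, 60, 120, 180, 240 min. Protein precipitated, supernatant analyzed by LC-MS/MS, and percentage formation of tafamidis calculated per time point.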

SMILES	Formation of tafamidis at 60 min [3]	Formation of tafamidis at 120 min [4]	Tafamidis CSF/Plasma Ratio over 24 hrs (po) [2]	Tafamidis CSF/Plasma Ratio (iv) [2]	other results
O=C(O)c1ccc2nc(-c3cc(Cl)cc(Cl)c3)oc2c1 [tafamidis]					tafamidis level in CSF relative to that in plasma ([1]; CSF): 2%; tafamidis/TTR stoichiometric ratio in plasma ([1]; plasma): 2.4; tafamidis/TTR stoichiometric ratio in vitreous and CSF ([1]; vitreous and CSF): ≤ 1; tafamidis level in vitreous relative to that in plasma ([1]; vitreous): 0.5%; Kp ([2]; male, Sprague-Dawley, CSF and plasma, oral dose of 2 mg/kg of tafamidis, reference, read-out: CSF to plasma ratio over 24 hrs): ~0.01; Kp at 24 h ([2]; male, Sprague-Dawley, brain and plasma, oral dose of 2 mg/kg of tafamidis, reference, read-out: brain to plasma ratio at 24 hrs): ~0.02
O=C(OC1CCN(CC(F)(F)F)C1)c1ccc2nc(-c3cc(Cl)cc(Cl)c3)oc2c1 (stereo not drawn) [Compound 151]	D (D is ≥75%)	A (A is <25%)	B (B is ≥0.015 to <0.02)		
CCN1CCCC(OC(=O)c2ccc3nc(-c4cc(Cl)cc(Cl)c4)oc3c2)C1 (stereo not drawn) [Compound 163]	B (B is ≥25 to <50%)	C (C is ≥50 to <75%)	A (A is < 0.015)		
O=C(OCCN1CCCC1)c1ccc2nc(-c3cc(Cl)cc(Cl)c3)oc2c1 [Compound 37, 2-(pyrrolidin-1-yl)ethyl 2-(3,5-dichlorophenyl)benzo[d]oxazole-6-carboxylate]	B (B is ≥25 to <50%)	B (B is ≥25 to <50%)		A (A is <0.015)	
CCN(CC)CCOC(=O)c1ccc2nc(-c3cc(Cl)cc(Cl)c3)oc2c1 [Compound 35, 2-(diethylamino)ethyl 2-(3,5-dichlorophenyl)benzo[d]oxazole-6-carboxylate hydrochloride]	B (B is ≥25 to <50%)	C (C is ≥50 to <75%)		B (B is ≥0.015 to <0.02)	
CNC(=O)c1ccc2nc(-c3cc(Cl)cc(Cl)c3)oc2c1 [Compound 87]	A (A is <25%)	A (A is <25%)	A (A is < 0.015)		
CN1CC[C@@H](OC(=O)c2ccc3nc(-c4cc(Cl)cc(Cl)c4)oc3c2)C1 [Compound 59, (R)-1-methylpyrrolidin-3-yl 2-(3,5-dichlorophenyl)benzo[d] oxazole-6-carboxylate]	A (A is <25%)	C (C is ≥50 to <75%)	B (B is ≥0.015 to <0.02)		
CC(Cn1ccnc1)OC(=O)c1ccc2nc(-c3cc(Cl)cc(Cl)c3)oc2c1 (stereo not drawn) [Compound 170]	B (B is ≥25 to <50%)	B (B is ≥25 to <50%)	A (A is < 0.015)		
O=C(OC1CCCN(CC(F)F)C1)c1ccc2nc(-c3cc(Cl)cc(Cl)c3)oc2c1 (stereo not drawn) [Compound 167, 1-(2,2-difluoroethyl)piperidin-3-yl 2-(3,5-dichlorophenyl)benzo[d]oxazole-6-carboxylate]	C (C is ≥50 to <75%)	C (C is ≥50 to <75%)	A (A is < 0.015)		
CC(CN(C)C)OC(=O)c1ccc2nc(-c3cc(Cl)cc(Cl)c3)oc2c1 (single isomer, unassigned) [Compound 46, (S*)-1-(dimethylamino)propan-2-yl 2-(3,5-dichlorophenyl)benzo[d]oxazole-6-carboxylate]	A (A is <25%)	B (B is ≥25 to <50%)	A (A is < 0.015)	C (C is ≥0.02)	
CCN1CCC(OC(=O)c2ccc3nc(-c4cc(Cl)cc(Cl)c4)oc3c2)C1 (stereo not drawn) [Compound 74]	A (A is <25%)	C (C is ≥50 to <75%)	C (C is ≥0.02)		
O=C(OCCCN1CCC1)c1ccc2nc(-c3cc(Cl)cc(Cl)c3)oc2c1 [Compound 39, 3-(azetidin-1-yl)propyl 2-(3,5-dichlorophenyl)benzo[d] oxazole-6-carboxylate]	A (A is <25%)	A (A is <25%)		B (B is ≥0.015 to <0.02)	
CC(OC(=O)c1ccc2nc(-c3cc(Cl)cc(Cl)c3)oc2c1)C1CCOC1 (stereo not drawn) [Compound 161]	B (B is ≥25 to <50%)	B (B is ≥25 to <50%)	A (A is < 0.015)		
CN1CCCC(OC(=O)c2ccc3nc(-c4cc(Cl)cc(Cl)c4)oc3c2)C1 (stereo not drawn) [Compound 62]	B (B is ≥25 to <50%)	B (B is ≥25 to <50%)	A (A is < 0.015)		
CN1CCC(OC(=O)c2ccc3nc(-c4cc(Cl)cc(Cl)c4)oc3c2)CC1 [Compound 11]	A (A is <25%)	A (A is <25%)	A (A is < 0.015)	B (B is ≥0.015 to <0.02)	
O=C(OCCCN1CCCC1)c1ccc2nc(-c3cc(Cl)cc(Cl)c3)oc2c1 [Compound 40, 3-(pyrrolidin-1-yl)propyl 2-(3,5-dichlorophenyl)benzo[d] oxazole-6-carboxylate]	A (A is <25%)	B (B is ≥25 to <50%)		B (B is ≥0.015 to <0.02)	
O=C(OCCN1CCNCC1)c1ccc2nc(-c3cc(Cl)cc(Cl)c3)oc2c1 [Compound 82]	A (A is <25%)	A (A is <25%)	A (A is < 0.015)		
CN(C)CCCOC(=O)c1ccc2nc(-c3cc(Cl)cc(Cl)c3)oc2c1 [Compound 1, 3-(Dimethylamino)propyl 2-(3,5-dichlorophenyl)benzo[d]oxazole-6-carboxylate]	A (A is <25%)	A (A is <25%)		B (B is ≥0.015 to <0.02)	
O=C(NCC(F)F)c1ccc2nc(-c3cc(Cl)cc(Cl)c3)oc2c1 [Compound 66, 2-(3,5-dichlorophenyl)-N-(2,2-difluoroethyl)benzo[d]oxazole-6-carboxamide]	A (A is <25%)	A (A is <25%)	C (C is ≥0.02)		
O=C(OCc1ncccn1)c1ccc2nc(-c3cc(Cl)cc(Cl)c3)oc2c1 [Compound 102]	C (C is ≥50 to <75%)	B (B is ≥25 to <50%)	A (A is < 0.015)		
CN1CC[C@H](OC(=O)c2ccc3nc(-c4cc(Cl)cc(Cl)c4)oc3c2)C1 [Compound 58, (S)-1-methylpyrrolidin-3-yl 2-(3,5-dichlorophenyl)benzo[d] oxazole-6-carboxylate hydrochloride]	A (A is <25%)	D (D is ≥75%)	A (A is < 0.015)		
O=C(OC1CCNCC1)c1ccc2nc(-c3cc(Cl)cc(Cl)c3)oc2c1 [Compound 13, hydrochloride]	A (A is <25%)	A (A is <25%)	B (B is ≥0.015 to <0.02)	B (B is ≥0.015 to <0.02)	
